Here are results for seven compounds from US8389739B1, “Modulators of retinoid-related orphan receptor gamma” (Orphagen Pharmaceuticals, priority 2006, dated 2013).

Each structure is given as a SMILES string. Like-named read-outs stand apart in the source and are kept apart here.

Test [1] concerns the target T1, hVDR (Vitamin D receptor) (Homo sapiens, UniProt P11473).
T1 construct: 90-427; expressed in transfected cells; host or cells: CHO cells, transient transfection
T1 sequence (P11473 90-427): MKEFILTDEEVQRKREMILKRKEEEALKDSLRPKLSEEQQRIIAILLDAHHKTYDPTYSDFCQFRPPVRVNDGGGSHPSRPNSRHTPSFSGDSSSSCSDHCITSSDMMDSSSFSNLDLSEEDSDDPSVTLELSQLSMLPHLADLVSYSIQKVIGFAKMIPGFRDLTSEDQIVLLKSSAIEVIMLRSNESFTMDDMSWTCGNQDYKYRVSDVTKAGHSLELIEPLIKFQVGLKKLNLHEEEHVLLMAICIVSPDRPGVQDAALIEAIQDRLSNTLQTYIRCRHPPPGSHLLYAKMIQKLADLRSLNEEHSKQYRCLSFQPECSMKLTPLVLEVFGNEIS
Briefly: Crossreactive receptor transcriptional assay (Gal4 hybrid). It is filed as cell-based. As for the experimental part: A firefly luciferase reporter gene for Gal4 DBD hybrid receptors, such as Gal4-RORγ, contains five copies of the Gal4 17-mer response element in its promoter and the coding sequence for firefly luciferase (pG5-luc, Promega). CHO (Chinese Hamster Ovary) cells were cultured in Ham's F12 medium supplemented with 10% fetal calf serum (Gemini Biologicals), 10 μg/ml penicillin and streptomycin, and were maintained in a humidified 37° C. incubator (Thermo Electron, Steri-Cycle) with 5% CO2. 24 hours before transfection, cells were plated in T175 flasks (5×10^6 cells/flask) or T75 flasks (1.7×10^6 cells/flask).
Plates are maintained at 37° C. in a humidified atmosphere with 7% CO2 overnight. […] Approximately 40 hours later, cytotoxicity in the assay well was characterized by addition of the dye resazurin (O'Brien, Wilson et al. 2000) to a final concentration of 3 μM. […] Percent viability was determined as 2 hour fluorescence, minus background at t=0 hours, normalized to DMSO controls. For detection of luciferase activity, media was removed from plates after the measurement of resazurin conversion, and SteadyLite luciferase reagent (Perkin-Elmer) was added (30 μl/well). Luminescence is detected with a Victor 2-V plate reader (Perkin-Elmer) and normalized to luciferase activity of DMSO control wells alone.

The target in test [2] is T2, mRORγ LBD (Mus musculus, UniProt P51450).
T2 construct: made in house; host or cells: Sf9 insect cells, baculovirus; cleared lysate used directly
T2 sequence (P51450 251-516): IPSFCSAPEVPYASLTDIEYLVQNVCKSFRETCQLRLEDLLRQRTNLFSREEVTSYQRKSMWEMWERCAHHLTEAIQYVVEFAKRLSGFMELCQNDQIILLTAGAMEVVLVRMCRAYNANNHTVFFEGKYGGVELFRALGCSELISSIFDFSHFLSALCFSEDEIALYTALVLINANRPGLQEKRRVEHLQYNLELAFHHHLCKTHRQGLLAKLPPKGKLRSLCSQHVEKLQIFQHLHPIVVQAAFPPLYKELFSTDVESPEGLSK
Briefly: Biochemical assay, coregulatory peptide recruitment to GST-RORγ LBD (FRET). The text has this: GST-RORγ was generated by subcloning the RORγ-LBD into pET-41a, a vector which expresses GST fusion proteins in bacteria.
The cloning steps for GST-RORγ were as follows. The mRORγ LBD was excised from Gal4-mRORγ (see above for cloning steps) at BamHI and HindIII sites of Sequence 1 and cloned into the corresponding sites of pET-41a(+) (EMD Biosciences, San Diego, Calif.). A GST-mRORγ fragment was then excised from pET-41a(+) at XbaI and XhoI sites and cloned into a pcDNA3.1vector (Invitrogen, Carlsbad, Calif.) restricted at NheI and XhoI sites. Plasmid GST-mRORγ-pcDNA3.1 was used as a PCR template to generate a GST-mRORγ fragment that was later cloned into pENTR/D-TOPO vector (Invitrogen, Carlsbad, Calif.) by standard cloning techniques recommended by the manufacturer of the vector. The nucleotide sequence of GST-mRORγ is shown below:
For baculoviral expression of RORγ, the cDNA fragment of GST-RORγ— LBD, was subcloned from pET-41a into the pENTR/D-TOPO vector using a commercially-available kit (BaculoDirect, Invitrogen). Briefly, GST-RORγ carried by pENTR/D-TOPO was transfected into mono-layer Sf9 cells (8×10^5/well in 6-well plates) by Cellfectin (Invitrogen). Sf9 cells were incubated at 27° C. in a non-humidified incubator for 72 hours. Cell media was collected as P1 viral stock and used to further infect Sf9 cells to generate P2 and P3 virus. […] A plaque assay was performed to determine the titer of P3 virus and to isolate single plaques. P4 virus was generated from a single plaque and propagated on a larger scale.
Adherent SF9 cells were infected with baculovirus carrying GST-RORγ and were cultured for 72 hours. Sf9 cell were then subject to a brief sonication in a lysis buffer (20 mM phosphate, pH 6.8, 50 mM KCl, 50 mM NaCl, 0.5 mM EDTA, 50% glycerol, 0.001% NP-40 and 1 mM DTT) and centrifuged at 3000 rpm for 15 minutes. […] Cleared cell lysate was stored at −70° C. and is directly utilized in the coregulatory peptide recruitment assay.
The labeled probes anti-GST-APC and SA-RPE were purchased from Prozyme (San Leandro, Calif.). Compounds were added directly from a DMSO solution to a final concentration of 1-2% DMSO. Fluorescence was measured on a Wallac Victor 2 V plate reader equipped with a 670/40 nm filter (Omega Optical, Brattleboro, Vt.) for APC emission (Channel A) and a 600/25 bandpass filter for monitoring the RPE emission (Channel B).

The mark [3] stands for this setting: Table 6, read-out: Potency (EC50) at hVDR.
Where [4] appears, read: Table 4A, peptide K1, no agonist present, medians of two or more assays, unit inferred, read-out: EC50 Biochemical.

With `O=S(=O)(c1ccccc1)N(CC(F)(F)F)c1ccc(C(O)(C(F)(F)F)C(F)(F)F)cc1` [Compound T0901317, N-(2,2,2-Trifluoro-ethyl)-N-[4-(2,2,2-trifluoro-1-hydroxy-1-trifluoromethyl-ethyl)-phenyl]-benzenesulfonamide, reference compound], the EC50 in test [1] (setting [3]) was over 10000 nM.

`CCn1c(CNc2ccc(Cl)cc2)nnc1SCC(=O)Nc1cccc2ccccc12` [OR-133008, 2-{5-[(4-Chloro-phenylamino)-methyl]-4-ethyl-4H-[1,2,4]triazol-3-ylsulfanyl}-N-naphthalen-1-yl-acetamide]: the values for the EC50 in test [1] (setting [3]) and in test [2] (setting [4]) were over 10000 nM and 1.61 µM, respectively.

`CCN(c1ccc(C(O)(C(F)(F)F)C(F)(F)F)cc1)S(=O)(=O)c1ccc([N+](=O)[O-])cc1` [OR-1050, N-Ethyl-4-nitro-N-[4-(2,2,2-trifluoro-1-hydroxy-1-trifluoromethyl-ethyl)-phenyl]-benzenesulfonamide]: the EC50 is over 10000 nM in test [1] (setting [3]); 0.9 µM in test [2] (Table 1, mRORγ and peptide K1, read-out: Assay EC50 in micromolar at mRORγ Biochemical); 0.9 µM in test [2] (Table 7, taken from Table 1 (peptide K1), read-out: Assay EC50 in micromolar at mRORγ Biochemical).

On to `COC(C)CCC(C)C1CCC2C3CC(O)C4CC(O)CCC4(C)C3CCC12C` (stereo not drawn) [OR-12872, 17-(4-Methoxy-1-methyl-pentyl)-10,13-dimethyl-hexadecahydro-cyclopenta[a]phenanthrene-3,6-diol], for which the EC50 in test [1] (setting [3]) is over 10000 nM; in test [2] (Table 2, agonists, biotinylated peptide K, 50% of estimated maximum FRET signal, read-out: EC50 in micromolar at mRORγ Biochemical), 0.052 µM; in test [2] (agonist, read-out: potency in the biochemical assay) it was under 0.1 µM.

As to `COc1c(C=NNc2nc(N3CCCCC3)nc(N3CCCCC3)n2)cccc1[N+](=O)[O-]` [OR-2161, N-(4,6-Di-piperidin-1-yl-[1,3,5]triazin-2-yl)-N′-(2-methoxy-3-nitro-benzylidene)-hydrazine], the EC50 in test [1] (setting [3]) is over 10000 nM; in test [2] (setting [4]), 4.5 µM.

Take `CC(=O)O[C@H]1CC[C@@]2(C)C(CC[C@]3(C)C2C(=O)C=C2C4[C@@H](C)[C@H](C)CC[C@]4(C(=O)O)CC[C@]23C)C1(C)C` (stereo in doubt) [OR-13571, 10-Acetoxy-1,2,6a,6b,9,9,12a-heptamethyl-13-oxo-1,3,4,5,6,6a,6b,7,8,8a,9,10,11,12,12a,12b,13,14b-octadecahydro-2H-picene-4a-carboxylic acid]: the EC50 is over 10000 nM in test [1] (setting [3]) and 1.2 µM in test [2] (setting [4]).

Regarding `C[C@@H]1CC[C@@]2(OC1)O[C@H]1C[C@H]3[C@@H]4CC[C@H]5C[C@@H](O)CC[C@]5(C)[C@H]4C[C@@H](O)[C@]3(C)[C@H]1[C@@H]2C` [OR-885, 5α,20α, 22α, 25D-SPIROSTAN-3β, 12β-DIOL], the EC50 in test [1] is over 10000 nM; in test [2] it was 2.5 µM.
